Key:
[1] = target: ABL1 (E255V) (Homo sapiens (Human), UniProt P00519, E255V); experiment: Radioactivity-based ABL kinase assay; type: biochemical; details: 100 μM 33P-ATP
Experimental: (§1) The following kinase assay was based on Anastassiadis et al (2011) Nat Biotech, 29:1039-1045. Briefly, ABL kinase substrate (ABLtide: EAIYAAPFAKKK; Genscript) was freshly prepared in reaction buffer (20 mM HEPES pH 7.5, 10 mM MgCl2, 1 mM EGTA, 0.02% Brij-35, 0.02 mg/ml BSA, 0.1 mM Na3VO4, 2 mM DTT, and 1% DMSO) to a final substrate concentration of 20 μM. ABL wild type and ABL mutant kinases were added to the substrate solution and mixed to the final enzyme concentrations shown in Table 3 below.
(§2) Serial dilutions of compounds were prepared in 100% DMSO Compounds or DMSO only (vehicle control) were then added to the kinase reaction mixture and incubated for 20 minutes at room temperature. 100 μM ^33P-ATP (specific activity 10 μCi/μl) was then added to the kinase reaction mixture to initiate the kinase reaction. This mixture was incubated for 2 hours at room temperature. Radioactivity was then measured by radioisotope filter-binding. Kinase activity data were expressed as the percent remaining kinase activity in test samples compared to vehicle control reactions. IC50 values and curve fits were obtained using a nonlinear regression model with a sigmoidal dose response (Prism GraphPad Software).

[2] = target: ABL1 (Y253F) (Homo sapiens (Human), UniProt P00519, Y253F); experiment: Radioactivity-based ABL kinase assay; type: biochemical; details: 100 μM 33P-ATP
Experimental: as §1, §2

[3] = target: ABL1 (V299L) (Homo sapiens (Human), UniProt P00519, V299L); experiment: Radioactivity-based ABL kinase assay; type: biochemical; details: 100 μM 33P-ATP
Experimental: as §1, §2

[4] = target: ABL1 (Q252H) (Homo sapiens (Human), UniProt P00519, Q252H); experiment: Radioactivity-based ABL kinase assay; type: biochemical; details: 100 μM 33P-ATP
Experimental: as §1, §2

[5] = target: ABL1 (T315I) (Homo sapiens (Human), UniProt P00519, T315I); experiment: Radioactivity-based ABL kinase assay; type: biochemical; details: 100 μM 33P-ATP
Experimental: as §1, §2

[6] = target: ABL1 (H396P) (Homo sapiens (Human), UniProt P00519, H396P); experiment: Radioactivity-based ABL kinase assay; type: biochemical; details: 100 μM 33P-ATP
Experimental: as §1, §2

[7] = target: ABL1 (E255K) (Homo sapiens (Human), UniProt P00519, E255K); experiment: Radioactivity-based ABL kinase assay; type: biochemical; details: 100 μM 33P-ATP
Experimental: as §1, §2

[8] = target: ABL1 (Homo sapiens (Human), UniProt P00519); experiment: Radioactivity-based ABL kinase assay; type: biochemical; details: 100 μM 33P-ATP
Experimental: as §1, §2

[9] = target: ABL1 (G250E) (Homo sapiens (Human), UniProt P00519, G250E); experiment: Radioactivity-based ABL kinase assay; type: biochemical; details: 100 μM 33P-ATP
Experimental: as §1, §2

[10] = target: ABL1 (Y253H) (Homo sapiens (Human), UniProt P00519, Y253H); experiment: Radioactivity-based ABL kinase assay; type: biochemical; details: 100 μM 33P-ATP
Experimental: as §1, §2

[11] = target: PDGFRα (Homo sapiens (Human), UniProt P16234); experiment: Luminescence-based PDGFRα kinase assay (Km ATP), ADP-Glo; type: biochemical; details: compound at 100 nM concentration
Experimental: Kinase activity of PDGFRα was measured using the ADP-Glo system (Promega). Compounds were diluted in DMSO at 100 μM. 20 nL of compound or DMSO only (high control, HC) were added to a 384-well plate (OptiPlate-384, PerkinElmer) using an Echo550 liquid handler (Labcyte). 15 μL of kinase solution (10 mM MgCl2, 0.01% Brij-35, 2 mM DTT, 0.05% BSA, 1 mM EGTA, 50 mM HEPES pH 7.5, and 13.3 nM PDGFRα [Carna Biosciences]) were added to each well of the 384-well plate containing the compounds. No enzyme control wells were included (low control, LC). The plate was incubated at room temperature for 30 minutes. 5 μL of a second solution containing 10 mM MgCl2, 0.01% Brij-35, 2 mM DTT, 0.05% BSA, 1 mM EGTA, 50 mM HEPES pH 7.5, 0.8 μg/ml Poly(Glu-Tyr) (Sigma, Cat No 97105-00-5), and 120 μM ATP were added to each well to start the kinase reaction. The plate was incubated for 90 minutes at room temperature. 20 μL of ADP-Glo reagent (Promega) were then added to each well and the plate was incubated for 40 minutes at room temperature. […] During this step, ADP was converted to ATP, a substrate for luciferase, to produce luminescence signal. Luminescence was measured on an Envision plate reader (Perkin Elmer). Luminescence signal positively correlates with kinase activity. The percent inhibition of kinase activity was calculated as follows: percent inhibition=100×(LumHC−LumSample)/(LumHC−LumLC). […]

[12] = system: phosphorylated ERK (pERK); experiment: Detection of phosphorylated ERK (pERK), AlphaLISA in A375 cells; type: cell-based; details: Homo sapiens, A-375, 4 h, four hours incubation, inhibition of ERK phosphorylation, read-out: PERK ELISA (IC50)
Outline: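 A375 cells plated overnight, then exposed 4 h at 37 °C to compounds (four-fold dilutions, 10 μM to 0.01 nM final). Lysate pERK (Thr202/Tyr204) measured by AlphaLISA SureFire; % inhibition normalized to DMSO and staurosporine controls, IC50 from four-parameter logistic fit.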

PDGFRα, sequence (P16234 24-1089): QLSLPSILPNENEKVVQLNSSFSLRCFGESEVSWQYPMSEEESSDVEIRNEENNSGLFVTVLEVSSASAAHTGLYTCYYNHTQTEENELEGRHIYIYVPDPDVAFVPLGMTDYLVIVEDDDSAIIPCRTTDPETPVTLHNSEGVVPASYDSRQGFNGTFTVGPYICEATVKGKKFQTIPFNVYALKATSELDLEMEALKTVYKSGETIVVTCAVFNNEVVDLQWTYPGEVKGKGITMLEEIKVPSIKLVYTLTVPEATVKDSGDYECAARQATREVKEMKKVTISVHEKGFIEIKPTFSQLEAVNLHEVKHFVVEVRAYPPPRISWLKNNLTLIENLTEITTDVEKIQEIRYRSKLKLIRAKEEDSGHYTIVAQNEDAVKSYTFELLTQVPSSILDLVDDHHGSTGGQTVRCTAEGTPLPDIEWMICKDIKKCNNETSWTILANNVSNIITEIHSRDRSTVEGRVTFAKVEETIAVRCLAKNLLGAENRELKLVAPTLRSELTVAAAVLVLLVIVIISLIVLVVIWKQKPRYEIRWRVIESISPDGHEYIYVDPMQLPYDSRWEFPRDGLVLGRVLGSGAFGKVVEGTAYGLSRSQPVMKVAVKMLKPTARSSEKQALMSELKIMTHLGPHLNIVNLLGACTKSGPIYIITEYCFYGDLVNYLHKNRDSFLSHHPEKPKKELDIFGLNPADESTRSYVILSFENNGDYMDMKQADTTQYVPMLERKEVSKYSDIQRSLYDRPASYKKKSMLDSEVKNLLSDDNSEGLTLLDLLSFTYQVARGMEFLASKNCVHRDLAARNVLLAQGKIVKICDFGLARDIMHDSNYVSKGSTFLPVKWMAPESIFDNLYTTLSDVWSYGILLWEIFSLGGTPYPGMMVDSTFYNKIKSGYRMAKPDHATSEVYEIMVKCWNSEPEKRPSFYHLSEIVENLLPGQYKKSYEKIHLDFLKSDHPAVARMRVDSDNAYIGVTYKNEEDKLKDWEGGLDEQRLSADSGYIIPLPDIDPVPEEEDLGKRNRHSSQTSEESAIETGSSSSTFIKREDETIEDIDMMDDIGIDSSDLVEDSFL

SMILES	IC50 [1]	IC50 [2]	IC50 [3]	IC50 [4]	IC50 [5]	IC50 [6]	IC50 [7]	IC50 [8]	IC50 [9]	IC50 [10]	inhibition at 0.1 µM [11]	IC50 [12]
Cc1c(F)cncc1-c1cc2cnc(NC(=O)C3CC3)cc2n(C)c1=O [Compound 2, N-[3-(5-fluoro-4-methylpyridin-3-yl)-1-methyl-2-oxo-1,6-naphthyridin-7-yl]cyclopropanecarboxamide]	0.61 nM	< 0.51 nM	< 0.51 nM	1.2 nM	4400 nM	1.2 nM	2 nM	0.61 nM	1.5 nM	0.93 nM	33%	189 nM
Cc1c(F)cncc1-c1cc2cnc(NC(=O)[C@@H]3C[C@@H]3F)cc2n(C)c1=O [Compound 28, (1S,2S)-2-fluoro-N-[3-(5-fluoro-4-methylpyridin-3-yl)-1-methyl-2-oxo-1,6-naphthyridin-7-yl]cyclopropane-1-carboxamide]	1.4 nM	0.53 nM	0.19 nM	1.7 nM	> 500 nM	1.4 nM	3.4 nM	1.2 nM	3.7 nM	3.6 nM	15%	146 nM
